{"source": "patent EP3046573B1", "about": "“AMYLIN ANALOGUES” (Zealand Pharma A/S, priority 2013, dated 2015)", "key": {"[1]": {"target": "T1, human calcitonin receptor (hCTR2) (Homo sapiens, UniProt P30988)", "T1 construct": "expressed in transfected cells", "T1 sequence (P30988 25-474)": "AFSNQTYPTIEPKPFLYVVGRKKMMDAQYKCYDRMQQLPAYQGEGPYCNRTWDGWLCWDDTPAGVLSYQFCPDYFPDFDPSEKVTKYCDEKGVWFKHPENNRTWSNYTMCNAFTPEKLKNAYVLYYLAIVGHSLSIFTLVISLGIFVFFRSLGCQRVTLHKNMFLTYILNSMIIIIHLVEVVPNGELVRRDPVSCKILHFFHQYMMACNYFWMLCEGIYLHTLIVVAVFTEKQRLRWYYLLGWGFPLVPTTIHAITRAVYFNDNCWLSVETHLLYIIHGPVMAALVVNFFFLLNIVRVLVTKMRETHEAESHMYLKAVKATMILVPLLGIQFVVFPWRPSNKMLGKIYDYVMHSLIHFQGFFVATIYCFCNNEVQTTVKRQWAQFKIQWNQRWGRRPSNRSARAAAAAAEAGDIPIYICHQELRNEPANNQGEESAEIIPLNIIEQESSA", "test": "hCTR2 assay: induction of cAMP (AlphaScreen cAMP Assay kit) in COS7 cells expressing hCTR2", "assay_type": "cell-based", "outline": "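cAMP induction was measured by AlphaScreen in COS7 cells stably expressing hCTR2 without RAMPs, after 15 min at 37° C with increasing peptide concentrations, 100 µM IBMX and 0.1% casein (Tyrode, pH 7.4). A 4-parameter logistic fit gave EC50 and % efficacy versus pramlintide.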"}, "[2]": {"target": "T2, human amylin receptor 3 (hAMYR3) consisting of hCTR2 co-expressed with human Receptor Activity Modifying Protein 3 (hRAMP3) (Homo sapiens, UniProt O60896+P30988)", "T2 construct": "expressed in transfected cells", "T2 sequence (P30988 25-474)": "T1 sequence (P30988 25-474)", "T2 sequence (O60896 24-148 partner)": "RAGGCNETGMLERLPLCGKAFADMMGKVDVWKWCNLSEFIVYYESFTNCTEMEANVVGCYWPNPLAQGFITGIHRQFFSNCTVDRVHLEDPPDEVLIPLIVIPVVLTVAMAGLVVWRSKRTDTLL", "test": "hAMYR3 assay: induction of cAMP (AlphaScreen cAMP Assay kit) in COS7 cells expressing hAMYR3", "assay_type": "cell-based", "outline": "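cAMP accumulation read by AlphaScreen in lysates of RAMP-naive COS7 cells stably transfected with hCTR2 plus hRAMP3. Cells exposed to peptide dilutions for 15 min, 37° C, with 100 µM IBMX; 4PL fitting gave EC50 and efficacy relative to pramlintide.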"}, "[3]": {"test": "Solubility assessment (turbidity absorbance at 325 nm)", "assay_type": "physicochemical", "settings": "stock 2 mg/ml diluted 1:1, ambient temperature (typically 25°C), n=1; for Solubility, Acetate buffer pH 4: 100 mM acetate buffer pH 4.0; for Solubility, Acetate buffer pH 5: 100 mM acetate buffer pH 5.0; for Solubility, Histidine buffer pH 6: 100 mM histidine buffer pH 6.0; for Solubility, Histidine buffer pH 7: 100 mM histidine buffer pH 7.0; for Solubility, Phosphate buffer pH 6: 100 mM phosphate buffer pH 6.0; for Solubility, Phosphate buffer pH 7: 100 mM phosphate buffer pH 7.0; for Solubility, Phosphate buffer pH 7.5: 100 mM phosphate buffer pH7.5", "outline": "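Turbidity read as absorbance at 325 nm (also 280 nm), single samples at ambient temperature (typically 25°C); ≤ 0.02 units counts as ≥ 1 mg/ml soluble. Samples made by 1:1 dilution of a 2 mg/ml acidic stock into 100 mM acetate, histidine or phosphate buffers, pH 4.0–7.5.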"}}, "note": "Like-named read-outs stand apart in the source and are kept apart here. Numbered stars: 1 amine (or outer) side, 2 acyl side, 3 side chain; on linkers, the order of the positions; unused ones are H or OH. Bridge positions count the residues as written; N and C are the ends. Square brackets hold non-standard residues; d marks the D form. Peptide text beside a SMILES is read from it. * marks the point of attachment. C20 diacid = O=C(O)CCCCCCCCCCCCCCCCCCC(=O)*; γGlu = O=C(O)[C@H](CCC(=O)[*:2])N[*:1]; Hyp = O=C(O)[C@@H]1C[C@@H](O)CN1; NMeI = CC[C@H](C)[C@H](NC)C(=O)O; Aze = O=C(O)[C@@H]1CCN1; Sar = CNCC(=O)O"}
{"smiles": "CC[C@H](C)[C@@H](C(=O)N[C@@H](CC(C)C)C(=O)N[C@@H](CO)C(=O)N[C@@H](CO)C(=O)N[C@H](C(=O)N[C@@H](CCC(=O)O)C(=O)N[C@H](C(=O)NCC(=O)N[C@@H](CO)C(=O)N[C@@H](CCC(=O)O)C(=O)N[C@H](C(=O)N1CCC[C@H]1C(N)=O)[C@@H](C)O)C(C)C)[C@@H](C)O)N(C)C(=O)[C@H](C)NC(=O)CN(C)C(=O)[C@H](Cc1ccccc1)NC(=O)[C@H](CO)NC(=O)[C@H](CO)NC(=O)[C@H](CCCNC(=N)N)NC(=O)[C@H](Cc1c[nH]cn1)NC(=O)[C@H](CC(C)C)NC(=O)[C@H](Cc1ccccc1)NC(=O)[C@H](CCC(=O)O)NC(=O)[C@H](C)NC(=O)[C@H](CC(C)C)NC(=O)[C@H](CCCNC(=N)N)NC(=O)[C@H](CCC(N)=O)NC(=O)[C@@H](NC(=O)[C@H](C)NC(=O)[C@@H]1CSSC[C@H](NC(=O)[C@H](CCCNC(=N)N)NC(=O)CC[C@H](NC(=O)CCCCCCCCCCCCCCCCCCC(=O)O)C(=O)O)C(=O)N[C@@H](CC(N)=O)C(=O)N[C@@H]([C@@H](C)O)C(=O)N[C@@H](C)C(=O)N[C@@H]([C@@H](C)O)C(=O)N1)[C@@H](C)O", "note": "[Compound 82, [19CD]-isoGlu-RC()NTATC()ATQRLAEFLHRSSF-Gly(Me)-A-Ile(Me)-LSSTEVGSETP-NH2] ({C20 diacid-γGlu}-RCNTATCATQRLAEFLHRSSF[Sar]A[NMeI]LSSTEVGSETP-NH2; disulfide 2-7)", "values": [{"measurement": "EC50", "setting": "[1]; cAMP induction in COS7 cells expressing hCTR2, average of a minimum of 3 determinations, read-out: hCTR2 EC50", "result": 0.07, "unit": "nM"}, {"measurement": "EC50", "setting": "[2]; cAMP induction in COS7 cells expressing hAMYR3, average of a minimum of 3 determinations, read-out: hAMY R3 EC50", "result": 0.12, "unit": "nM"}, {"measurement": "Solubility, Acetate buffer pH 4", "setting": "[3]", "result": "SS (SS indicates solubility ≥ 1mg/ml)"}, {"measurement": "Solubility, Acetate buffer pH 5", "setting": "[3]", "result": "SS (SS indicates solubility ≥ 1mg/ml)"}, {"measurement": "Solubility, Histidine buffer pH 6", "setting": "[3]", "result": "SS (SS indicates solubility ≥ 1mg/ml)"}, {"measurement": "Solubility, Histidine buffer pH 7", "setting": "[3]", "result": "SS (SS indicates solubility ≥ 1mg/ml)"}, {"measurement": "Solubility, Phosphate buffer pH 6", "setting": "[3]", "result": "SS (SS indicates solubility ≥ 1mg/ml)"}, {"measurement": "Solubility, Phosphate buffer pH 7", "setting": "[3]", "result": "SS (SS indicates solubility ≥ 1mg/ml)"}, {"measurement": "Solubility, Phosphate buffer pH 7.5", "setting": "[3]", "result": "SS (SS indicates solubility ≥ 1mg/ml)"}]}
{"smiles": "CC[C@H](C)[C@@H](C(=O)N[C@@H](CC(C)C)C(=O)N[C@@H](CO)C(=O)N[C@@H](CO)C(=O)N[C@H](C(=O)N[C@@H](CC(N)=O)C(=O)N[C@H](C(=O)NCC(=O)N[C@@H](CO)C(=O)N[C@@H](CC(N)=O)C(=O)N[C@H](C(=O)N1C[C@H](O)C[C@H]1C(N)=O)[C@@H](C)O)C(C)C)[C@@H](C)O)N(C)C(=O)[C@H](C)NC(=O)CN(C)C(=O)[C@H](Cc1ccccc1)NC(=O)[C@H](CC(N)=O)NC(=O)[C@H](CC(N)=O)NC(=O)[C@H](CO)NC(=O)[C@H](CO)NC(=O)[C@H](CCCNC(=N)N)NC(=O)[C@H](Cc1c[nH]cn1)NC(=O)[C@H](CC(C)C)NC(=O)[C@H](Cc1ccccc1)NC(=O)[C@H](CCC(=O)O)NC(=O)[C@H](C)NC(=O)[C@H](CC(C)C)NC(=O)[C@H](CCCNC(=N)N)NC(=O)[C@H](CCC(N)=O)NC(=O)[C@@H](NC(=O)[C@H](C)NC(=O)[C@@H]1CSSC[C@H](NC(=O)[C@H](CCCNC(=N)N)NC(=O)CC[C@H](NC(=O)CCCCCCCCCCCCCCCCCCC(=O)O)C(=O)O)C(=O)N[C@@H](CC(N)=O)C(=O)N[C@@H]([C@@H](C)O)C(=O)N[C@@H](C)C(=O)N[C@@H]([C@@H](C)O)C(=O)N1)[C@@H](C)O", "note": "[Compound 105, [19CD]-isoGlu-RC()NTATC()ATQRLAEFLHRSSNNF-Gly(Me)-A-Ile(Me)-LSSTNVGSNT-Hyp-NH2] ({C20 diacid-γGlu}-RCNTATCATQRLAEFLHRSSNNF[Sar]A[NMeI]LSSTNVGSNT[Hyp]-NH2; disulfide 2-7)", "values": [{"measurement": "EC50", "setting": "[1]", "result": 0.083, "unit": "nM"}, {"measurement": "EC50", "setting": "[2]", "result": 0.092, "unit": "nM"}, {"measurement": "Solubility, Acetate buffer pH 4", "setting": "[3]", "result": "SS (SS indicates solubility ≥ 1mg/ml)"}, {"measurement": "Solubility, Acetate buffer pH 5", "setting": "[3]", "result": "SS (SS indicates solubility ≥ 1mg/ml)"}, {"measurement": "Solubility, Histidine buffer pH 6", "setting": "[3]", "result": "SS (SS indicates solubility ≥ 1mg/ml)"}, {"measurement": "Solubility, Histidine buffer pH 7", "setting": "[3]", "result": "SS (SS indicates solubility ≥ 1mg/ml)"}, {"measurement": "Solubility, Phosphate buffer pH 6", "setting": "[3]", "result": "SS (SS indicates solubility ≥ 1mg/ml)"}, {"measurement": "Solubility, Phosphate buffer pH 7", "setting": "[3]", "result": "SS (SS indicates solubility ≥ 1mg/ml)"}, {"measurement": "Solubility, Phosphate buffer pH 7.5", "setting": "[3]", "result": "SS (SS indicates solubility ≥ 1mg/ml)"}]}
{"smiles": "CC[C@H](C)[C@@H](C(=O)N[C@@H](CC(C)C)C(=O)N[C@@H](CO)C(=O)N[C@@H](CO)C(=O)N[C@H](C(=O)N[C@@H](CC(N)=O)C(=O)N[C@H](C(=O)NCC(=O)N[C@@H](CO)C(=O)N[C@@H](CC(N)=O)C(=O)N[C@H](C(=O)N1CC[C@H]1C(N)=O)[C@@H](C)O)C(C)C)[C@@H](C)O)N(C)C(=O)[C@H](C)NC(=O)CN(C)C(=O)[C@H](Cc1ccccc1)NC(=O)[C@H](CC(N)=O)NC(=O)[C@H](CC(N)=O)NC(=O)[C@H](CO)NC(=O)[C@H](CO)NC(=O)[C@H](CCCNC(=N)N)NC(=O)[C@H](Cc1c[nH]cn1)NC(=O)[C@H](CC(C)C)NC(=O)[C@H](Cc1ccccc1)NC(=O)[C@H](CCC(=O)O)NC(=O)[C@H](C)NC(=O)[C@H](CC(C)C)NC(=O)[C@H](CCCNC(=N)N)NC(=O)[C@H](CCC(N)=O)NC(=O)[C@@H](NC(=O)[C@H](C)NC(=O)[C@@H]1CSSC[C@H](NC(=O)[C@H](CCCNC(=N)N)NC(=O)CC[C@H](NC(=O)CCCCCCCCCCCCCCCCCCC(=O)O)C(=O)O)C(=O)N[C@@H](CC(N)=O)C(=O)N[C@@H]([C@@H](C)O)C(=O)N[C@@H](C)C(=O)N[C@@H]([C@@H](C)O)C(=O)N1)[C@@H](C)O", "note": "[Compound 107, [19CD]-isoGlu-RC()NTATC()ATQRLAEFLHRSSNNF-Gly(Me)-A-Ile(Me)-LSSTNVGSNT-Aze-NH2] ({C20 diacid-γGlu}-RCNTATCATQRLAEFLHRSSNNF[Sar]A[NMeI]LSSTNVGSNT[Aze]-NH2; disulfide 2-7)", "values": [{"measurement": "EC50", "setting": "[1]", "result": 0.18, "unit": "nM"}, {"measurement": "EC50", "setting": "[2]", "result": 0.52, "unit": "nM"}, {"measurement": "Solubility, Acetate buffer pH 4", "setting": "[3]", "result": "SS (SS indicates solubility ≥ 1mg/ml)"}, {"measurement": "Solubility, Acetate buffer pH 5", "setting": "[3]", "result": "SS (SS indicates solubility ≥ 1mg/ml)"}, {"measurement": "Solubility, Histidine buffer pH 6", "setting": "[3]", "result": "SS (SS indicates solubility ≥ 1mg/ml)"}, {"measurement": "Solubility, Histidine buffer pH 7", "setting": "[3]", "result": "SS (SS indicates solubility ≥ 1mg/ml)"}, {"measurement": "Solubility, Phosphate buffer pH 6", "setting": "[3]", "result": "SS (SS indicates solubility ≥ 1mg/ml)"}, {"measurement": "Solubility, Phosphate buffer pH 7", "setting": "[3]", "result": "SS (SS indicates solubility ≥ 1mg/ml)"}, {"measurement": "Solubility, Phosphate buffer pH 7.5", "setting": "[3]", "result": "SS (SS indicates solubility ≥ 1mg/ml)"}]}
